Experimental data as given in US20230143604A1, “QW DOSING OF GIP RECEPTOR AGONIST PEPTIDE COMPOUNDS AND USES THEREOF” (TAKEDA PHARMACEUTICAL COMPANY LIMITED, priority 2020, published 2023).
Starred links: 1 amine or outer side, 2 acyl side, 3 side chain; linkers in the order of their positions; H or OH if unused. Non-standard residues stand in square brackets, D forms with d. Residues, ends and D or L forms follow the SMILES beside them. Groups on a side chain read outwards from the residue. *: point of attachment. C18 diacid = O=C(O)CCCCCCCCCCCCCCCCC(=O)*; C17 diacid = O=C(O)CCCCCCCCCCCCCCCC(=O)*; γGlu = O=C(O)[C@H](CCC(=O)[*:2])N[*:1]; NMeY = CN[C@@H](Cc1ccc(O)cc1)C(=O)O; AEEA = NCCOCCOCC(=O)O; Aib = CC(C)(N)C(=O)O

Assay: physchem
Experimental: Solubility of the GIPR peptides may be determined by dissolution in a phosphate buffer followed by quantitation using liquid chromatography, for example, High Performance Liquid Chromatogry (HPLC). An illustrative method is provided. For determination of the solubility of the GIPr agonist peptides, 3 mg of peptides are weighted out in a small glass vial. 100 μL of 200 mM Phosphate buffer pH 7.4 are added and the vial is sonicated/votexed as necessary for a maximum of 1 min. […] If insoluble material is observed in the tube the addition of 100 μL of buffer and mixing is repeated until complete dissolution.
3 mg of peptides are weighted out in a small glass vial. 100 uL of 200 mM Phosphate buffer pH 7.4 are added and the vial is sonicated/votexed as necessary for a maximum of 1 min. […] If insoluble material is observed in the tube the addition of 100 uL of buffer and mixing is repeated until complete dissolution.

[1] = pH 7.4, aqueous buffer, pH 7.4 Phosphate Buffer - Solubility, 200 mM Phosphate buffer pH 7.4
[2] = pH 7.4, solubility in phosphate buffer at pH 7.4, 200 mM phosphate buffer pH 7.4

Structure (SMILES)	solubility (pH 7.4)	solubility (pH 7.4, aqueous buffer)	solubility [1]	solubility [2]
CC[C@H](C)[C@H](NC(=O)[C@H](CO)NC(=O)[C@H](Cc1ccc(O)cc1)NC(=O)[C@H](CC(=O)O)NC(=O)[C@H](CO)NC(=O)[C@@H](NC(=O)[C@H](Cc1ccccc1)NC(=O)[C@@H](NC(=O)CNC(=O)[C@H](CCC(=O)O)NC(=O)C(C)(C)NC(=O)[C@H](Cc1ccc(O)cc1)NC)[C@@H](C)O)[C@@H](C)CC)C(=O)N[C@@H](C)C(=O)N[C@@H](CC(C)C)C(=O)N[C@@H](CC(=O)O)C(=O)N[C@@H](CCCNC(=N)N)C(=O)N[C@H](C(=O)N[C@@H](Cc1c[nH]cn1)C(=O)N[C@@H](CCC(N)=O)C(=O)N[C@@H](CCC(N)=O)C(=O)N[C@@H](CC(N)=O)C(=O)N[C@@H](Cc1ccccc1)C(=O)N[C@H](C(=O)N[C@@H](CC(N)=O)C(=O)N[C@@H](Cc1c[nH]c2ccccc12)C(=O)N[C@@H](CC(C)C)C(=O)N[C@@H](CC(C)C)C(=O)N[C@@H](C)C(=O)N[C@@H](CCC(N)=O)C(=O)N[C@@H](CCCCNC(=O)COCCOCCNC(=O)COCCOCCNC(=O)CC[C@H](NC(=O)CCCCCCCCCCCCCCCCC(=O)O)C(=O)O)C(N)=O)C(C)C)[C@@H](C)CC [Compound 5] (H-[NMeY][Aib]EGTFISDYSIALDRIHQQNFVNWLLAQK([AEEA-AEEA-γGlu-C18 diacid])-NH2)	≥ 15 mg/mL	≥ 27 mg/mL		
CC[C@H](C)[C@H](NC(=O)[C@H](CO)NC(=O)[C@H](Cc1ccc(O)cc1)NC(=O)[C@H](CC(=O)O)NC(=O)[C@H](CO)NC(=O)[C@@H](NC(=O)[C@H](Cc1ccccc1)NC(=O)[C@@H](NC(=O)CNC(=O)[C@H](CCC(=O)O)NC(=O)C(C)(C)NC(=O)[C@H](Cc1ccc(O)cc1)NC)[C@@H](C)O)[C@@H](C)CC)C(=O)N[C@@H](C)C(=O)N[C@@H](CCCCNC(=O)COCCOCCNC(=O)COCCOCCNC(=O)CC[C@H](NC(=O)CCCCCCCCCCCCCCCCC(=O)O)C(=O)O)C(=O)N[C@@H](CC(=O)O)C(=O)N[C@@H](CCCNC(=N)N)C(=O)NC(C)(C)C(=O)N[C@@H](C)C(=O)N[C@@H](CCC(N)=O)C(=O)NC(C)(C)C(=O)N[C@@H](CC(N)=O)C(=O)N[C@@H](Cc1ccccc1)C(=O)N[C@H](C(=O)N[C@@H](CC(N)=O)C(=O)N[C@@H](Cc1c[nH]c2ccccc12)C(=O)N[C@@H](CC(C)C)C(=O)N[C@@H](CC(C)C)C(=O)N[C@@H](C)C(=O)N[C@@H](CCC(N)=O)C(=O)N[C@@H](CCCCN)C(N)=O)C(C)C [Compound 6] (H-[NMeY][Aib]EGTFISDYSIAK([AEEA-AEEA-γGlu-C18 diacid])DR[Aib]AQ[Aib]NFVNWLLAQK-NH2)		≥ 15 mg/mL		
CC[C@H](C)[C@H](NC(=O)[C@H](CO)NC(=O)[C@H](Cc1ccc(O)cc1)NC(=O)[C@H](CC(=O)O)NC(=O)[C@H](CO)NC(=O)[C@@H](NC(=O)[C@H](Cc1ccccc1)NC(=O)[C@@H](NC(=O)CNC(=O)[C@H](CCC(=O)O)NC(=O)C(C)(C)NC(=O)[C@H](Cc1ccc(O)cc1)NC)[C@@H](C)O)[C@@H](C)CC)C(=O)N[C@@H](C)C(=O)N[C@@H](CCCCNC(=O)COCCOCCNC(=O)COCCOCCNC(=O)CC[C@H](NC(=O)CC[C@H](NC(=O)CCCCCCCCCCCCCCCC(=O)O)C(=O)O)C(=O)O)C(=O)N[C@@H](CC(=O)O)C(=O)N[C@@H](CCCNC(=N)N)C(=O)NC(C)(C)C(=O)N[C@@H](C)C(=O)N[C@@H](CCC(N)=O)C(=O)NC(C)(C)C(=O)N[C@@H](CC(N)=O)C(=O)N[C@@H](Cc1ccccc1)C(=O)N[C@H](C(=O)N[C@@H](CC(N)=O)C(=O)N[C@@H](Cc1c[nH]c2ccccc12)C(=O)N[C@@H](CC(C)C)C(=O)N[C@@H](CC(C)C)C(=O)N[C@@H](C)C(=O)N[C@@H](CCC(N)=O)C(=O)N[C@@H](CCCNC(=N)N)C(=O)O)C(C)C [Compound 7] (H-[NMeY][Aib]EGTFISDYSIAK([AEEA-AEEA-γGlu-γGlu-C17 diacid])DR[Aib]AQ[Aib]NFVNWLLAQR-OH)	≥ 15 mg/mL	≥ 30 mg/mL		
CC[C@H](C)[C@H](NC(=O)[C@H](CO)NC(=O)[C@H](Cc1ccc(O)cc1)NC(=O)[C@H](CC(=O)O)NC(=O)[C@H](CO)NC(=O)[C@@H](NC(=O)[C@H](Cc1ccccc1)NC(=O)[C@@H](NC(=O)CNC(=O)[C@H](CCC(=O)O)NC(=O)C(C)(C)NC(=O)[C@H](Cc1ccc(O)cc1)NC)[C@@H](C)O)[C@@H](C)CC)C(=O)N[C@@H](C)C(=O)N[C@@H](CC(C)C)C(=O)N[C@@H](CC(=O)O)C(=O)N[C@@H](CCCNC(=N)N)C(=O)NC(C)(C)C(=O)N[C@@H](C)C(=O)N[C@@H](CCC(N)=O)C(=O)NC(C)(C)C(=O)N[C@@H](CCCCNC(=O)COCCOCCNC(=O)COCCOCCNC(=O)CC[C@H](NC(=O)CC[C@H](NC(=O)CCCCCCCCCCCCCCCC(=O)O)C(=O)O)C(=O)O)C(=O)N[C@@H](Cc1ccccc1)C(=O)N[C@H](C(=O)N[C@@H](CC(N)=O)C(=O)N[C@@H](Cc1c[nH]c2ccccc12)C(=O)N[C@@H](CC(C)C)C(=O)N[C@@H](CC(C)C)C(=O)N[C@@H](C)C(=O)N[C@@H](CCC(N)=O)C(=O)N[C@@H](CCCNC(=N)N)C(=O)O)C(C)C [Compound 9] (H-[NMeY][Aib]EGTFISDYSIALDR[Aib]AQ[Aib]K([AEEA-AEEA-γGlu-γGlu-C17 diacid])FVNWLLAQR-OH)	≥ 15 mg/mL	≥ 30 mg/mL		
CC[C@H](C)[C@H](NC(=O)[C@H](CO)NC(=O)[C@H](Cc1ccc(O)cc1)NC(=O)[C@H](CC(=O)O)NC(=O)[C@H](CO)NC(=O)[C@@H](NC(=O)[C@H](Cc1ccccc1)NC(=O)[C@@H](NC(=O)CNC(=O)[C@H](CCC(=O)O)NC(=O)C(C)(C)NC(=O)[C@H](Cc1ccc(O)cc1)NC)[C@@H](C)O)[C@@H](C)CC)C(=O)N[C@@H](C)C(=O)N[C@@H](CCCCNC(=O)COCCOCCNC(=O)COCCOCCNC(=O)CC[C@H](NC(=O)CCCCCCCCCCCCCCCC(=O)O)C(=O)O)C(=O)N[C@@H](CC(=O)O)C(=O)N[C@@H](CCCNC(=N)N)C(=O)NC(C)(C)C(=O)N[C@@H](C)C(=O)N[C@@H](CCC(N)=O)C(=O)NC(C)(C)C(=O)N[C@@H](CC(N)=O)C(=O)N[C@@H](Cc1ccccc1)C(=O)N[C@H](C(=O)N[C@@H](CC(N)=O)C(=O)N[C@@H](Cc1c[nH]c2ccccc12)C(=O)N[C@@H](CC(C)C)C(=O)N[C@@H](CC(C)C)C(=O)N[C@@H](C)C(=O)N[C@@H](CCC(N)=O)C(=O)N[C@@H](CO)C(=O)O)C(C)C [Compound 10] (H-[NMeY][Aib]EGTFISDYSIAK([AEEA-AEEA-γGlu-C17 diacid])DR[Aib]AQ[Aib]NFVNWLLAQS-OH)	≥ 15 mg/mL	≥ 30 mg/mL		
CC[C@H](C)[C@H](NC(=O)[C@H](CO)NC(=O)[C@H](Cc1ccc(O)cc1)NC(=O)[C@H](CC(=O)O)NC(=O)[C@H](CO)NC(=O)[C@@H](NC(=O)[C@H](Cc1ccccc1)NC(=O)[C@@H](NC(=O)CNC(=O)[C@H](CCC(=O)O)NC(=O)C(C)(C)NC(=O)[C@H](Cc1ccc(O)cc1)NC)[C@@H](C)O)[C@@H](C)CC)C(=O)N[C@@H](C)C(=O)N[C@@H](CCCCNC(=O)CC[C@H](NC(=O)CC[C@H](NC(=O)CC[C@H](NC(=O)CCCCCCCCCCCCCCCC(=O)O)C(=O)O)C(=O)O)C(=O)O)C(=O)N[C@@H](CC(=O)O)C(=O)N[C@@H](CCCNC(=N)N)C(=O)NC(C)(C)C(=O)N[C@@H](C)C(=O)N[C@@H](CCC(N)=O)C(=O)NC(C)(C)C(=O)N[C@@H](CC(N)=O)C(=O)N[C@@H](Cc1ccccc1)C(=O)N[C@H](C(=O)N[C@@H](CC(N)=O)C(=O)N[C@@H](Cc1c[nH]c2ccccc12)C(=O)N[C@@H](CC(C)C)C(=O)N[C@@H](CC(C)C)C(=O)N[C@@H](C)C(=O)N[C@@H](CCC(N)=O)C(=O)N[C@@H](CO)C(=O)N1CCC[C@H]1C(=O)N[C@@H](CO)C(=O)N[C@@H](CO)C(=O)NCC(=O)N[C@@H](C)C(=O)N1CCC[C@H]1C(=O)N1CCC[C@H]1C(=O)N1CCC[C@H]1C(=O)N[C@@H](CO)C(N)=O)C(C)C [Compound 12] (H-[NMeY][Aib]EGTFISDYSIAK([γGlu-γGlu-γGlu-C17 diacid])DR[Aib]AQ[Aib]NFVNWLLAQSPSSGAPPPS-NH2)			≥ 30 mg/mL	≥ 15 mg/mL
CC[C@H](C)[C@H](NC(=O)[C@H](Cc1ccccc1)NC(=O)[C@@H](NC(=O)CNC(=O)[C@H](CCC(=O)O)NC(=O)C(C)(C)NC(=O)[C@H](Cc1ccc(O)cc1)NC)[C@@H](C)O)C(=O)N[C@@H](CO)C(=O)N[C@@H](CC(=O)O)C(=O)N[C@@H](Cc1ccc(O)cc1)C(=O)N[C@@H](CO)C(=O)N[C@H](C(=O)NC(C)(C)C(=O)N[C@@H](CCCCNC(=O)COCCOCCNC(=O)COCCOCCNC(=O)CC[C@H](NC(=O)CC[C@H](NC(=O)CCCCCCCCCCCCCCCC(=O)O)C(=O)O)C(=O)O)C(=O)N[C@@H](CC(=O)O)C(=O)N[C@@H](CCCNC(=N)N)C(=O)NC(C)(C)C(=O)N[C@@H](C)C(=O)N[C@@H](CCC(N)=O)C(=O)NC(C)(C)C(=O)N[C@@H](CC(N)=O)C(=O)N[C@@H](Cc1ccccc1)C(=O)N[C@H](C(=O)N[C@@H](CC(N)=O)C(=O)N[C@@H](Cc1c[nH]c2ccccc12)C(=O)N[C@@H](CC(C)C)C(=O)N[C@@H](CC(C)C)C(=O)N[C@@H](C)C(=O)N[C@@H](CCC(N)=O)C(=O)N[C@@H](CCCNC(=N)N)C(=O)N1CCC[C@H]1C(=O)N[C@@H](CO)C(=O)N[C@@H](CO)C(=O)NCC(=O)N[C@@H](C)C(=O)N1CCC[C@H]1C(=O)N1CCC[C@H]1C(=O)N1CCC[C@H]1C(=O)N[C@@H](CO)C(N)=O)C(C)C)[C@@H](C)CC [Compound 14] (H-[NMeY][Aib]EGTFISDYSI[Aib]K([AEEA-AEEA-γGlu-γGlu-C17 diacid])DR[Aib]AQ[Aib]NFVNWLLAQRPSSGAPPPS-NH2)			≥ 30 mg/mL	≥ 15 mg/mL
